Data from ChEMBL document CHEMBL1201862, “PubChem BioAssay data set” (2004).
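Method: 48-hour compound exposure of cells in 96-well plates, five concentrations, linear interpolation of endpoints. GI50: concentration for 50% inhibition of growth.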 Active and inactive are the calls of the source. No stated cut-off is given here; in the data, active = GI50 up to about 1.1 µM and inactive = higher.

Tests used:
Test in all cases: NCI tumour cell line growth inhibition, 48 h
OVCAR-5 = tested on: OVCAR-5
NCI/ADR-RES = tested on: NCI/ADR-RES
NCI-H460 = tested on: NCI-H460
SN12C = tested on: SN12C
T47D = tested on: T47D
NCI-H226 = tested on: NCI-H226
CAKI-1 = tested on: CAKI-1
EKVX = tested on: EKVX
DU-145 = tested on: DU-145
ACHN = tested on: ACHN
SF-295 = tested on: SF-295
COLO 205 = tested on: COLO 205
UACC-257 = tested on: UACC-257
OVCAR-8 = tested on: OVCAR-8
KM12 = tested on: KM12
M14 = tested on: M14
A498 = tested on: A498
LOX IMVI = tested on: LOX IMVI
MCF7 = tested on: MCF7
SK-OV-3 = tested on: SK-OV-3

Measured: GI50

CC1C2(C)OCC(C#N)(C(=N)O2)C1(C#N)C#N (stereo not given)
inactive: OVCAR-5 29.1 µM | NCI/ADR-RES 41.2 µM | NCI-H460 18.5 µM | SN12C 15.7 µM | T47D 12.6 µM | NCI-H226 67 µM | CAKI-1 12.5 µM | EKVX 19.1 µM | DU-145 22.5 µM | ACHN 36.5 µM | SF-295 78 µM | COLO 205 14.7 µM | UACC-257 23.9 µM | OVCAR-8 23.9 µM | KM12 36.2 µM | M14 16.1 µM | A498 88.7 µM | LOX IMVI 17.7 µM | MCF7 20.7 µM | SK-OV-3 > 100 µM

CC(=O)CC[N+](C)(C)C
inactive: OVCAR-5 44.6 µM | NCI/ADR-RES 38.9 µM | NCI-H460 65.8 µM | SN12C 27.7 µM | T47D 29.2 µM | NCI-H226 53 µM | CAKI-1 1.9 µM | EKVX 17.7 µM | DU-145 88.5 µM | ACHN 17 µM | SF-295 83.6 µM | COLO 205 9.04 µM | UACC-257 25.8 µM | OVCAR-8 33.5 µM | KM12 77.3 µM | M14 23 µM | A498 69.2 µM | LOX IMVI 14.1 µM | MCF7 30.3 µM | SK-OV-3 26.7 µM

CCOC(=O)c1c(Br)c(-c2ccc(OC)cc2)c(Br)n1C
inactive: OVCAR-5 72.3 µM | NCI/ADR-RES 5.18 µM | NCI-H460 52.2 µM | SN12C 12.9 µM | T47D 13.4 µM | NCI-H226 22.2 µM | CAKI-1 > 10 µM | EKVX 16.8 µM | DU-145 32.2 µM | ACHN 29.6 µM | SF-295 25.2 µM | COLO 205 27.6 µM | UACC-257 23.2 µM | OVCAR-8 27.1 µM | KM12 11.4 µM | M14 26.4 µM | A498 14.6 µM | LOX IMVI 7.14 µM | MCF7 8.39 µM | SK-OV-3 18.5 µM

C=CCC1(Sc2ccccn2)Sc2ccc3ccccc3c2-c2c(ccc3ccccc23)S1
inactive: OVCAR-5 > 100 µM | NCI/ADR-RES > 100 µM | NCI-H460 > 100 µM | SN12C > 100 µM | T47D > 100 µM | NCI-H226 > 100 µM | CAKI-1 > 100 µM | EKVX > 100 µM | DU-145 > 100 µM | ACHN > 100 µM | SF-295 > 100 µM | COLO 205 > 100 µM | UACC-257 > 100 µM | OVCAR-8 > 100 µM | KM12 > 100 µM | M14 > 100 µM | A498 > 100 µM | LOX IMVI > 100 µM | MCF7 > 100 µM | SK-OV-3 > 100 µM

CCC1([N+](=O)[O-])CC2C=CC1C2 (stereo not given)
inactive: OVCAR-5 > 100 µM | NCI/ADR-RES > 100 µM | NCI-H460 > 100 µM | SN12C > 100 µM | T47D > 100 µM | NCI-H226 > 100 µM | CAKI-1 > 100 µM | EKVX > 100 µM | DU-145 > 100 µM | ACHN > 100 µM | SF-295 > 100 µM | COLO 205 > 100 µM | UACC-257 > 100 µM | OVCAR-8 > 100 µM | KM12 > 100 µM | M14 > 100 µM | A498 > 100 µM | LOX IMVI > 100 µM | MCF7 > 100 µM | SK-OV-3 > 100 µM

O=C(NCc1ccccc1)c1cc2ccccc2o/c1=N\c1ccccc1F
inactive: OVCAR-5 43.4 µM | NCI/ADR-RES 46.7 µM | NCI-H460 41.7 µM | SN12C 28.9 µM | T47D 16.6 µM | NCI-H226 31.6 µM | CAKI-1 14 µM | EKVX 27.7 µM | DU-145 29.7 µM | ACHN 19.5 µM | SF-295 22 µM | COLO 205 26.4 µM | UACC-257 34.4 µM | OVCAR-8 14.3 µM | KM12 25.7 µM | M14 34.4 µM | A498 38.6 µM | LOX IMVI 14.9 µM | MCF7 33.7 µM | SK-OV-3 16.5 µM

CC(C)NC(=O)OCCN=C1c2ccccc2C(Br)C(Br)c2ccccc21 (stereo not given)
inactive: OVCAR-5 12 µM | NCI/ADR-RES 16 µM | NCI-H460 10.4 µM | SN12C 12.6 µM | T47D 3.25 µM | NCI-H226 15.6 µM | CAKI-1 7.01 µM | EKVX 9.06 µM | DU-145 6.98 µM | ACHN 7.6 µM | SF-295 19 µM | COLO 205 5.13 µM | UACC-257 7.35 µM | OVCAR-8 8 µM | KM12 21.8 µM | M14 8.65 µM | A498 1.62 µM | LOX IMVI 2.94 µM | MCF7 12.1 µM | SK-OV-3 26.1 µM

NC1=CN(Cc2ccccc2)C2=N/C(=C\c3ccccc3)C(=O)N12
inactive: OVCAR-5 > 100 µM | NCI/ADR-RES > 100 µM | NCI-H460 > 100 µM | SN12C > 100 µM | T47D > 100 µM | NCI-H226 > 100 µM | CAKI-1 > 100 µM | EKVX > 100 µM | DU-145 > 100 µM | ACHN > 100 µM | SF-295 > 100 µM | COLO 205 > 100 µM | UACC-257 40.1 µM | OVCAR-8 > 100 µM | KM12 96.8 µM | M14 > 100 µM | A498 > 100 µM | LOX IMVI > 100 µM | MCF7 > 100 µM | SK-OV-3 > 100 µM

O=c1c2ccccc2c2c1c1c3ccccc3c(=O)c1c1c3ccccc3c(=O)c21
inactive: OVCAR-5 > 100 µM | NCI/ADR-RES > 100 µM | NCI-H460 > 100 µM | SN12C > 100 µM | T47D > 100 µM | NCI-H226 > 100 µM | CAKI-1 > 100 µM | EKVX > 100 µM | DU-145 > 100 µM | ACHN > 100 µM | SF-295 > 100 µM | COLO 205 > 100 µM | UACC-257 > 100 µM | OVCAR-8 > 100 µM | KM12 > 100 µM | M14 > 100 µM | A498 > 100 µM | LOX IMVI > 100 µM | MCF7 > 100 µM | SK-OV-3 > 100 µM

N#CC(c1ccccc1)N(CCc1ccccc1)C(=O)c1ccccc1 (stereo not given)
inactive: OVCAR-5 > 100 µM | NCI/ADR-RES 42.9 µM | NCI-H460 > 100 µM | SN12C > 100 µM | T47D > 100 µM | NCI-H226 > 58.7 µM | CAKI-1 > 100 µM | EKVX > 77.4 µM | DU-145 > 100 µM | ACHN > 91.8 µM | SF-295 38.5 µM | COLO 205 > 100 µM | UACC-257 > 100 µM | OVCAR-8 38.7 µM | KM12 > 100 µM | M14 > 100 µM | A498 > 100 µM | LOX IMVI > 100 µM | MCF7 > 100 µM | SK-OV-3 53.3 µM

C/C(=N/c1[nH]c(=O)cc2c1C(=O)CC2)N(C)C
inactive: OVCAR-5 > 200 µM | NCI/ADR-RES > 200 µM | NCI-H460 > 200 µM | SN12C > 200 µM | T47D > 200 µM | NCI-H226 > 200 µM | CAKI-1 > 200 µM | EKVX > 200 µM | DU-145 > 200 µM | ACHN > 200 µM | SF-295 > 200 µM | COLO 205 > 200 µM | UACC-257 > 200 µM | OVCAR-8 > 200 µM | KM12 > 200 µM | M14 > 200 µM | A498 > 200 µM | LOX IMVI > 200 µM | MCF7 > 200 µM | SK-OV-3 > 200 µM

COc1ccc([C@H]2CC(=O)C[C@H](c3ccc(OC)cc3)C23C(=O)c2ccccc2C3=O)cc1
inactive: OVCAR-5 12.6 µM | NCI/ADR-RES 1.94 µM | NCI-H460 3.65 µM | SN12C 7.57 µM | T47D 4.31 µM | NCI-H226 6.11 µM | CAKI-1 3.06 µM | EKVX 4.59 µM | DU-145 16.4 µM | ACHN 16.6 µM | SF-295 3.95 µM | COLO 205 2.64 µM | UACC-257 2.29 µM | OVCAR-8 9.75 µM | KM12 4.13 µM | M14 6.34 µM | A498 > 100 µM | LOX IMVI 4.16 µM | MCF7 7.06 µM | SK-OV-3 3.97 µM

COc1ccc(Nc2nc(N)c(C(=O)c3ccco3)s2)cc1
inactive: OVCAR-5 > 83.2 µM | NCI/ADR-RES 26.1 µM | NCI-H460 13.7 µM | SN12C > 70.8 µM | T47D > 60.5 µM | NCI-H226 33.9 µM | CAKI-1 50 µM | EKVX > 58.3 µM | DU-145 38.4 µM | ACHN 47.8 µM | SF-295 31.6 µM | COLO 205 13.4 µM | UACC-257 41.7 µM | OVCAR-8 > 100 µM | KM12 8.59 µM | M14 65.2 µM | A498 13.2 µM | LOX IMVI 32.5 µM | MCF7 6.81 µM | SK-OV-3 35 µM

O=C1/C(=C/c2ccc([N+](=O)[O-])cc2)CNC/C1=C\c1ccc([N+](=O)[O-])cc1
inactive: OVCAR-5 22.8 µM | NCI/ADR-RES 5.09 µM | NCI-H460 2.59 µM | SN12C 5.41 µM | T47D 18.7 µM | NCI-H226 15 µM | CAKI-1 1.79 µM | EKVX 9.86 µM | DU-145 10.8 µM | ACHN 12.3 µM | SF-295 10.2 µM | COLO 205 5.62 µM | UACC-257 45.5 µM | OVCAR-8 3.13 µM | KM12 1.36 µM | M14 12.5 µM | A498 16.6 µM | LOX IMVI 2.09 µM | MCF7 2.74 µM | SK-OV-3 48 µM
